Measurements taken from patent US20090111736A1, “Orally-Absorbed Solid Dose Formulation for Vancomycin” (SRI International, priority 2007, published 2009).
Where “and” joins values, the source holds several entries; their conditions need not be identical. Equal values may be shown once. Where a name gives a salt, the structure may show the parent alone.

Tested on: rat jejunum
Experiment: In vitro mucosal-to-serosal vancomycin transport, modified Ussing chambers, jejunum
Format: in vitro ADME
Settings: for Ave. Cumulative Amt VCM Released: jejunum
Source text: We investigated regional variation in permeation of vancomycin (VCM) across various segments of rat intestine and colon in vitro by mounting isolated segments of rat intestine and colon between horizontal modified Ussing chambers. The effects of drug concentration and of addition of a p-glycoprotein inhibitor or permeation enhancer(s) as formulation additives on VCM permeation were also studied in vitro using segments of rat jejunum.
Methods: A modified Ussing system (Easy mount Ussing system, Physiological Instruments Inc., CA, Item # EM-CSYS-8) with eight sets of chambers was used for all in vitro studies; each set consisted of two parallel diffusion chambers, a heating block for temperature control, needle valves for gas flow adjustment and gas mixing, and Ag/AgCl voltage and current electrodes for measuring transepithelial voltage and for passing current.
Harvesting of required small intestinal or colon segments of a male rat was performed using experimental procedures described in the literature (Gotoh et al., J Biomol Screen (2005) 10:517-23). The harvested segments of small intestine or colon were mounted on sliders placed between the two horizontal chambers of a modified Ussing system.
VCM was dissolved in HEPES buffer pH 7.4 (Table 1) previously saturated with 100% O2 or HEPES buffer containing additives selected from permeation enhancer(s) and/or an efflux transport inhibitor (Table 2) to obtain predetermined concentrations of drug and additive(s).
Drug transport across epithelial membranes of harvested rat small intestine and colon segments, in mucosal-to-serosal (M-to-S) direction, was studied using modified Ussing Chambers. Aliquots of HEPES buffer (5 ml) were initially added to both the mucosal and serosal chambers and allowed to equilibrate for 20 minutes. The HEPES buffer in the mucosal chamber was replaced by a study sample containing VCM alone or VCM and selected additive(s) in HEPES buffer, e.g., 5 mg/mL of VCM dissolved in HEPES buffer containing 10% w/w Labrasol®. Aliquots of 0.5 mL buffer solutions were removed periodically from serosal chambers, and replaced with equal volumes of fresh warm (37±2° C.) HEPES buffer previously saturated with 100% O2. […]
Changes in transepithelial short-circuit current (in micro-Amps) and membrane resistance (in Ohms) as a function of time were monitored continuously during in vitro studies to serve as indicators of tissue viability and drug permeability, respectively. The buffer samples from the receptor chambers were analyzed for VCM content on a high pressure liquid chromatograph (HPLC; Hewlett Packard Model 1100 series).
The analysis of VCM samples was performed using a reverse phase gradient HPLC method, with a Hypersil BDS C18 column, 5 μm, 150×4.6 mm., mobile phase consisting of 5 mM potassium phosphate monobasic in water (pH 3) as solvent A and acetonitrile as solvent B at a flow rate of 1 ml/min (Farin et al., J Pharm Biomed Anal (1998) 18:367-72). The eluant was monitored by a UV/diode array detector at 280 nm.
To compare data obtained from different in vitro experiments, the apparent permeability coefficients were calculated using the equation: […]
Where dQ/dt is the linear appearance rate of mass in receiver compartment, C0 is the initial solute concentration in donor compartment, and A is the surface area (Luo et al., Drug Metab Dispos (2002) 30:763-70).

**Q.** Which results are given for `CN[C@H](CC(C)C)C(=O)N[C@H]1C(=O)N[C@@H](CC(N)=O)C(=O)N[C@H]2C(=O)N[C@H]3C(=O)N[C@H](C(=O)N[C@H](C(=O)O)c4cc(O)cc(O)c4-c4cc3ccc4O)[C@H](O)c3ccc(c(Cl)c3)Oc3cc2cc(c3O[C@@H]2O[C@H](CO)[C@@H](O)[C@H](O)[C@H]2O[C@H]2C[C@](C)(N)[C@H](O)[C@H](C)O2)Oc2ccc(cc2Cl)[C@H]1O` [Vancomycin hydrochloride]?
**A.** increase in M-to-S transport of VCM (0.15 mM Quinidine added to the serosal chamber): 3 fold; effect on M-to-S transport of VCM (0.15 mM Quinidine in mucosal chamber): increased M-to-S transport of VCM, but to a lesser extent; effect on in vitro permeation of VCM (1.0 mM sodium decanoate in mucosal chamber): much greater effect; effect on in vitro permeation of VCM (1.0 mM sodium decanoate in serosal chamber): minimal effect; effect on M-to-S transport of VCM (bile salts at 20% w/w in mucosal chamber): greatly enhanced M-to-S transport; Ave. Cumulative Amt VCM Released (1.0 mM sodium decanoate in mucosal chamber, 0.5 hr): 2.24 ± 3.17 µg; Ave. Cumulative Amt VCM Released (1.0 mM sodium decanoate in mucosal chamber, 1.0 hr): 4.52 ± 6.39 µg; Ave. Cumulative Amt VCM Released (1.0 mM sodium decanoate in mucosal chamber, 1.5 hr): 11.11 ± 10.44 µg; Ave. Cumulative Amt VCM Released (1.0 mM sodium decanoate in mucosal chamber, 2.0 hr): 19.25 ± 14.42 µg; Ave. Cumulative Amt VCM Released (1.0 mM sodium decanoate in mucosal chamber, 2.5 hr): 34.10 ± 8.84 µg; Ave. Cumulative Amt VCM Released (1.0 mM sodium decanoate in serosal chamber, 0.5 hr): 0.00 ± 0.00 µg; Ave. Cumulative Amt VCM Released (1.0 mM sodium decanoate in serosal chamber, 1.0 hr): 0.91 ± 1.28 µg; Ave. Cumulative Amt VCM Released (1.0 mM sodium decanoate in serosal chamber, 1.5 hr): 3.91 ± 0.70 µg; Ave. Cumulative Amt VCM Released (1.0 mM sodium decanoate in serosal chamber, 2.0 hr): 6.91 ± 0.41 µg; Ave. Cumulative Amt VCM Released (1.0 mM sodium decanoate in serosal chamber, 2.5 hr): 10.60 ± 0.28 µg; Ave. Cumulative Amt VCM Released (5 mg/ml vancomycin in HEPES buffer without enhancer, 0.5 hr, hydrochloride): 0.00 ± 0.00 µg and 0.00 ± 0.0 µg; Ave. Cumulative Amt VCM Released (5 mg/ml vancomycin in HEPES buffer without enhancer, 1.0 hr): 1.06 ± 0.95 µg; Ave. Cumulative Amt VCM Released (5 mg/ml vancomycin in HEPES buffer without enhancer, 1.5 hr): 3.73 ± 0.61 µg; Ave. Cumulative Amt VCM Released (5 mg/ml vancomycin in HEPES buffer without enhancer, 2.0 hr): 6.94 ± 1.07 µg; Ave. Cumulative Amt VCM Released (5 mg/ml vancomycin in HEPES buffer without enhancer, 2.5 hr): 11.08 ± 1.08 µg; Ave. Cumulative Amt VCM Released (5 mg/ml, 0.15 mM Quinidine in mucosal chamber, 0.5 hr): 0.00 ± 0.00 µg; Ave. Cumulative Amt VCM Released (5 mg/ml, 0.15 mM Quinidine in mucosal chamber, 1.0 hr): 1.72 ± 2.44 µg; Ave. Cumulative Amt VCM Released (5 mg/ml, 0.15 mM Quinidine in mucosal chamber, 1.5 hr): 4.91 ± 3.98 µg; Ave. Cumulative Amt VCM Released (5 mg/ml, 0.15 mM Quinidine in mucosal chamber, 2.0 hr): 9.00 ± 5.72 µg; Ave. Cumulative Amt VCM Released (5 mg/ml, 0.15 mM Quinidine in mucosal chamber, 2.5 hr): 14.14 ± 6.95 µg; Ave. Cumulative Amt VCM Released (5 mg/ml, 0.15 mM Quinidine in serosal chamber, 0.5 hr): 1.87 ± 0.57 µg; Ave. Cumulative Amt VCM Released (5 mg/ml, 0.15 mM Quinidine in serosal chamber, 1.0 hr): 8.27 ± 3.06 µg; Ave. Cumulative Amt VCM Released (5 mg/ml, 0.15 mM Quinidine in serosal chamber, 1.5 hr): 16.77 ± 7.45 µg; Ave. Cumulative Amt VCM Released (5 mg/ml, 0.15 mM Quinidine in serosal chamber, 2.0 hr): 26.75 ± 11.57 µg; Ave. Cumulative Amt VCM Released (5 mg/ml, 0.15 mM Quinidine in serosal chamber, 2.5 hr): 38.96 ± 12.27 µg; Ave. Cumulative Amt VCM Released (5 mg/ml, slider area 0.5 cm^2, 20% w/w bile salt, 0.5 hr): 0.00 ± 0.00 µg; Ave. Cumulative Amt VCM Released (5 mg/ml, slider area 0.5 cm^2, 20% w/w bile salt, 1.0 hr): 5.40 ± 2.26 µg; Ave. Cumulative Amt VCM Released (5 mg/ml, slider area 0.5 cm^2, 20% w/w bile salt, 1.5 hr): 18.19 ± 7.43 µg; Ave. Cumulative Amt VCM Released (5 mg/ml, slider area 0.5 cm^2, 20% w/w bile salt, 2.0 hr): 37.58 ± 9.54 µg; Ave. Cumulative Amt VCM Released (5 mg/ml, slider area 0.5 cm^2, 20% w/w bile salt, 2.5 hr): 66.39 ± 18.91 µg; Ave. Cumulative Amt VCM Released (5 mg/ml, slider area 0.5 cm^2, No Q (quinidine study), 0.5 hr): 0.00 ± 0.00 µg; Ave. Cumulative Amt VCM Released (5 mg/ml, slider area 0.5 cm^2, No Q (quinidine study), 1.0 hr): 1.66 ± 0.43 µg; Ave. Cumulative Amt VCM Released (5 mg/ml, slider area 0.5 cm^2, No Q (quinidine study), 1.5 hr): 4.34 ± 1.57 µg; Ave. Cumulative Amt VCM Released (5 mg/ml, slider area 0.5 cm^2, No Q (quinidine study), 2.0 hr): 8.73 ± 2.92 µg; Ave. Cumulative Amt VCM Released (5 mg/ml, slider area 0.5 cm^2, No Q (quinidine study), 2.5 hr): 14.24 ± 4.56 µg; Ave. Cumulative Amt VCM Released (10 mg/ml in HEPES buffer without enhancer, 0.5 hr): 0.00 ± 0.0 µg; Ave. Cumulative Amt VCM Released (10 mg/ml in HEPES buffer without enhancer, 1.0 hr): 2.76 ± 0.69 µg; Ave. Cumulative Amt VCM Released (10 mg/ml in HEPES buffer without enhancer, 1.5 hr): 6.88 ± 0.98 µg; Ave. Cumulative Amt VCM Released (10 mg/ml in HEPES buffer without enhancer, 2.0 hr): 12.86 ± 1.23 µg; Ave. Cumulative Amt VCM Released (10 mg/ml in HEPES buffer without enhancer, 2.5 hr): 20.77 ± 1.90 µg; Ave. Cumulative Amt VCM Released (25 mg/ml in HEPES buffer without enhancer, 0.5 hr): 0.00 ± 0.0 µg; Ave. Cumulative Amt VCM Released (25 mg/ml in HEPES buffer without enhancer, 1.0 hr): 2.90 ± 1.82 µg; Ave. Cumulative Amt VCM Released (25 mg/ml in HEPES buffer without enhancer, 1.5 hr): 7.99 ± 5.71 µg; Ave. Cumulative Amt VCM Released (25 mg/ml in HEPES buffer without enhancer, 2.0 hr): 21.56 ± 3.84 µg; Ave. Cumulative Amt VCM Released (25 mg/ml in HEPES buffer without enhancer, 2.5 hr): 50.91 ± 6.58 µg
